Test results taken from PMC6123691, “Structural basis for promotion of duodenal iron absorption by enteric ferric reductase with ascorbate” (Communications Biology, 2018).

T1: duodenal cytochrome b (Dcytb) (Homo sapiens, UniProt Q53TN4)
T1 construct: gene CYBRD1; full-length Dcytb (residues 1–286); atomic model residues 6–230
T1 sequence (Q53TN4 1-286): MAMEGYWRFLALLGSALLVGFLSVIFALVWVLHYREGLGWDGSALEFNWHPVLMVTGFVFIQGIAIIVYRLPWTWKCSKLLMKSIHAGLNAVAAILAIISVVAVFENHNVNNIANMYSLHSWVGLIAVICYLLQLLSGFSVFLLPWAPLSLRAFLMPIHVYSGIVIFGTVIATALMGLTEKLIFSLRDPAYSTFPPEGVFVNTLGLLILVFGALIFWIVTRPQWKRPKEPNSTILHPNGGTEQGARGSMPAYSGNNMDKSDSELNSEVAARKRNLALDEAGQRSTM


Experiments:
[1] = target: T1, duodenal cytochrome b (Dcytb); assay: X-ray crystal structure ([…] Å, soaked with […] sodium ascorbate and ZnSO4); stopped-flow heme reduction; assay type: binding
[2] = target: the molecule itself; assay: crystal structure; lipidic cubic phase (monoolein) crystals, space group C2; substrate-free form at 2.6 Å and Zn2+/ascorbate-soaked form at 2.8 Å; the dimer is formed by crystallographic twofold symmetry

| Molecule | X-ray crystal structure (2.8 Å, soaked with 1 M sodium ascorbate and ZnSO4); sto [1] | stoichiometry N [2] |
| --- | --- | --- |
| O=C1O[C@H]([C@@H](O)CO)C(O)=C1O [Asc, ascorbate] | The electron density from one ascorbate molecule was observed on the cytoplasmic surface of Dcytb in proximity to the heme | – |
| human duodenal cytochrome b (Dcytb) (enzyme, UniProt Q53TN4 1-286, looked up, human duodenal cytochrome b (Dcytb), member of the cytochrome b561 family, full-length, residues 1-286; codon-optimized gene; the atomic model includes only residues 6-230; A thrombin cleavage site stood between the protein and the C-terminal hexa-His tag (pET-21b(+)); after cleavage some residues of the site may remain at the C-terminus; Integral membrane protein, solubilised in DDM and …) MAMEGYWRFLALLGSALLVGFLSVIFALVWVLHYREGLGWDGSALEFNWHPVLMVTGFVFIQGIAIIVYRLPWTWKCSKLLMKSIHAGLNAVAAILAIISVVAVFENHNVNNIANMYSLHSWVGLIAVICYLLQLLSGFSVFLLPWAPLSLRAFLMPIHVYSGIVIFGTVIATALMGLTEKLIFSLRDPAYSTFPPEGVFVNTLGLLILVFGALIFWIVTRPQWKRPKEPNSTILHPNGGTEQGARGSMPAYSGNNMDKSDSELNSEVAARKRNLALDEAGQRSTM | – | 2 |
